{"source": "patent US20230181905A1", "about": "“Systems, Devices, and Methods for Enhancing the Neuroprotective Effects of Non-Invasive Gamma Stimulation with Pharmacological Agents” (Massachusetts Institute of Technology, priority 2021, published 2023)", "tested_on": "gene expression in microglia, oligodendrocytes, neurons and astrocytes", "assay": "Single-cell and single-nucleus RNA sequencing of brain tissue", "assay_type": "in vivo, mouse", "conditions": "5×FAD mice", "experimental": "Gene expression changes in microglia are strongly associated with AD pathogenesis. Thus, the effect of these treatments on gene expression using single-cell RNA sequencing was investigates (10× Genomics, #Chromium Next GEM Single Cell 3′ Kit v3.1, 16 rxns PN-1000268). […] The gene expression changes between treatment conditions in the microglia cluster were examined. […] Further, due to the depth of the gene expression analysis sub-clustering of microglia was performed.\nAs neurons were not represented from the single-cell RNA-sequencing (FIGS. 8A-12), to study the effect of these treatments on gene expression in neurons, single nucleus RNA-sequencing was performed (10× Genomics, #Chromium Next GEM Kit v3.1, 16 rxns PN-1000268). […] The gene expression changes between treatment conditions in the interneurons cluster were examined.\nMice were killed and the brain tissue was freshly dissected out and the single cell suspension or nuclei was prepared. Single cell RNA libraries were prepared using the Chromium Next GEM Single Cell 3′ Kit v3.1 according to the manufacturer's protocol (10× Genomics). The generated scRNA-seq libraries were sequenced using NovaSeq. Gene counts were obtained by aligning reads to the mouse genome. […]\nRNA sequencing: The animals and brain tissues were prepared, and then the single nuclei from the brain tissue was then obtained. […] The RNA-seq data was analyzed in R package. […]", "data": [{"smiles": "FC(F)(F)c1ccc(CNc2ccc(Cc3c[nH]c4ncc(Cl)cc34)cn2)cn1", "note": "[Plx3397, Pexidartinib]", "values": [{"measurement": "genes related to Tyrobp-trem2-Apoe pathway in microglia", "setting": "single-cell RNA sequencing, microglia cluster", "value": "upregulated"}, {"measurement": "abnormal synaptic transmission genes in E-neurons", "setting": "visual cortex, snRNA-seq", "value": "upregulated"}]}]}
